Data from US6706663B2, “Herbicidal 3-heterocyclic substituted benzisothiazole and benzisoxazole compounds” (Wyeth, priority 2000, dated 2004).

Key:
[1] = system: ABUTH (Abutilon theophrasti); test: Preemergence herbicidal evaluation; format: in vivo, Medic.; details: rated 4-5 weeks after treatment
[2] = system: AMBEL (Ambrosia artemisifolia); test: Preemergence herbicidal evaluation; format: in vivo, L.; details: rated 4-5 weeks after treatment
In short: (§1)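 Preemergence soil spray, aq. acetone; greenhouse; visual 0–9 score vs control at 4–5 wk.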

[3] = system: CASOB (Cassia obtusifolia); test: Preemergence herbicidal evaluation; format: in vivo, L.; details: rated 4-5 weeks after treatment
In short: as §1

[4] = system: CHEAL (Chenopodium album); test: Preemergence herbicidal evaluation; format: in vivo, L.; details: rated 4-5 weeks after treatment
In short: as §1

ORYSAT (Rice, Tebonnet) [5] = test: Postemergence herbicidal evaluation; format: in vivo, Oryza sativa, (L.) Tebonnet; details: postemergence
In short: (§2)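 Visual 0–9 injury scores versus control plants, covering stand, vigour, malformation, size, chlorosis and general appearance, taken four to five weeks post-spray and averaged over replicate tests. Plants were sprayed at roughly two weeks old and held on greenhouse benches.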

GALAP (Galium aparine) [6] = test: Preemergence herbicidal evaluation; format: in vivo; details: rated 4-5 weeks after treatment
In short: as §1

[7] = system: AMBEL (Ambrosia artemisifolia); test: Postemergence herbicidal evaluation; format: in vivo, L.; details: postemergence
In short: as §2

[8] = system: CASOB (Cassia obtusifolia); test: Postemergence herbicidal evaluation; format: in vivo, L.; details: postemergence
In short: as §2

[9] = system: CHEAL (Chenopodium album); test: Postemergence herbicidal evaluation; format: in vivo, L.; details: postemergence
In short: as §2

[10] = system: SAGPY (Sagittaria pygmaea); test: Flooded paddy, preemergence weed control; format: in vivo, L.; details: rated 3-4 weeks after treatment, 0-9 rating scale
In short: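 Greenhouse paddy test, preemergence. Seeds planted in the top 0.5 cm of silt loam soil, which remained flooded at 1.5–3 cm depth. Scored 0-9 by visual comparison with control.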

[11] = system: IPOHE (Ipomoea hederacea); test: Preemergence herbicidal evaluation; format: in vivo, (L.) Jacq.; details: rated 4-5 weeks after treatment
GALAP (Galium aparine) [12] = test: Postemergence herbicidal evaluation; format: in vivo; details: postemergence
In short: as §2

[13] = system: GLXMAW (Soybean, Williams); test: Postemergence herbicidal evaluation; format: in vivo, Glycine max, (L.) Merr. cv Williams; details: postemergence
In short: as §2

[14] = system: ABUTH (Abutilon theophrasti); test: Postemergence herbicidal evaluation; format: in vivo, Medic.; details: postemergence
In short: as §2

ZEAMX (Corn, Field) = test: Postemergence herbicidal evaluation; format: in vivo, Zea mays, L.; details: postemergence
In short: as §2

[15] = system: TRZAWR (Wheat, Winter, cv Riband); test: Preemergence herbicidal evaluation; format: in vivo, Triticum aestivum; details: rated 4-5 weeks after treatment
In short: as §1

ORYSAT (Rice, Tebonnet) [16] = test: Flooded paddy, post-transplant rice tolerance; format: in vivo, Oryza sativa, (L.) Tebonnet; details: flooded paddy, post-transplant rice, rated 3-4 weeks after treatment, 0-9 rating scale
In short: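 Ten-day-old seedlings, 2/pot, silt loam; flood kept 1.5–3 cm over soil; herbicide applied post-transplant; greenhouse; score 0–9 visual vs control.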

[17] = system: ECHCG (Echinochloa crus-galli); test: Postemergence herbicidal evaluation; format: in vivo, (L.) Beau; details: postemergence
In short: as §2

ORYSAT (Rice, Tebonnet) [18] = test: Preemergence herbicidal evaluation; format: in vivo, Oryza sativa, (L.) Tebonnet; details: rated 4-5 weeks after treatment

Question: `Cn1c(C(F)(F)F)cc(=O)n(-c2ccc3snc(C4OCC(CO)O4)c3c2)c1=O` (stereo not drawn) [Compound 73, 3-[3-[4-(hydroxymethyl)-1,3-dioxolan-2-yl]-1,2-benzisothiazol-5-yl]-1-methyl-6-(trifluoromethyl)uracil] was tested. Which “Preemergence herbicidal rating ABUTH” value ([1]; Rate 0.0620 kg/ha) did it give?
Answer: Its value is 9.0.

Question: What about the “Preemergence herbicidal rating ABUTH” value ([1]; Rate 0.1250 kg/ha) of the same compound?
Answer: Its value is 9.0.

Question: What about the “Preemergence herbicidal rating ABUTH” value ([1]; Rate 0.2500 kg/ha) of the same compound?
Answer: The value was 9.0.

Question: What about the “Preemergence herbicidal rating AMBEL” value ([2]; Rate 0.0620 kg/ha) of the same compound?
Answer: Its value is 8.5.

Question: And the “Preemergence herbicidal rating AMBEL” value ([2]; Rate 0.1250 kg/ha)?
Answer: Its value is 9.0.

Question: And the “Preemergence herbicidal rating AMBEL” value ([2]; Rate 0.2500 kg/ha)?
Answer: Its value is 9.0.

Question: And the “Preemergence herbicidal rating CASOB” value ([3]; Rate 0.0620 kg/ha)?
Answer: The value was 2.5.

Question: And the “Preemergence herbicidal rating CASOB” value ([3]; Rate 0.1250 kg/ha)?
Answer: The value was 6.0.

Question: And the “Preemergence herbicidal rating CASOB” value ([3]; Rate 0.2500 kg/ha)?
Answer: The value was 8.0.

Question: And the “Preemergence herbicidal rating CHEAL” value ([4]; Rate 0.0620 kg/ha)?
Answer: Its value is 9.0.

Question: What about the “Preemergence herbicidal rating CHEAL” value ([4]; Rate 0.1250 kg/ha) of the same compound?
Answer: Its value is 9.0.

Question: What about the “Preemergence herbicidal rating CHEAL” value ([4]; Rate 0.2500 kg/ha) of the same compound?
Answer: Its value is 9.0.

Question: And the ORYSAT herbicidal rating (ORYSAT (Rice, Tebonnet) [5]; rate 0.0320 kg/ha)?
Answer: Its ORYSAT herbicidal rating is 3.0.

Question: What about the ORYSAT herbicidal rating (ORYSAT (Rice, Tebonnet) [5]; rate 0.0620 kg/ha) of the same compound?
Answer: Its ORYSAT herbicidal rating is 4.0.

Question: And the “Preemergence herbicidal rating GALAP” value (GALAP (Galium aparine) [6]; Rate 0.0620 kg/ha)?
Answer: The value was 8.0.

Question: And the “Preemergence herbicidal rating GALAP” value (GALAP (Galium aparine) [6]; Rate 0.1250 kg/ha)?
Answer: The value was 8.0.

Question: And the “Preemergence herbicidal rating GALAP” value (GALAP (Galium aparine) [6]; Rate 0.2500 kg/ha)?
Answer: The value was 9.0.

Question: And the AMBEL herbicidal rating ([7]; rate 0.0320 kg/ha)?
Answer: The AMBEL herbicidal rating was 9.0.

Question: What about the AMBEL herbicidal rating ([7]; rate 0.0620 kg/ha) of the same compound?
Answer: The AMBEL herbicidal rating was 9.0.

Question: And the CASOB herbicidal rating ([8]; rate 0.0320 kg/ha)?
Answer: The CASOB herbicidal rating was 3.0.

Question: What about the CASOB herbicidal rating ([8]; rate 0.0620 kg/ha) of the same compound?
Answer: Its CASOB herbicidal rating is 4.0.

Question: What about the CHEAL herbicidal rating ([9]; rate 0.0320 kg/ha) of the same compound?
Answer: The CHEAL herbicidal rating was 9.0.

Question: What about the CHEAL herbicidal rating ([9]; rate 0.0620 kg/ha) of the same compound?
Answer: The CHEAL herbicidal rating was 9.0.

Question: What about the “herbicidal rating, SAGPY” value ([10]; rate 0.0080 kg/ha) of the same compound?
Answer: The value was 0.0.

Question: What about the “herbicidal rating, SAGPY” value ([10]; rate 0.0320 kg/ha) of the same compound?
Answer: The value was 0.0.

Question: And the “herbicidal rating, SAGPY” value ([10]; rate 0.1250 kg/ha)?
Answer: Its value is 3.0.

Question: What about the “Preemergence herbicidal rating IPOHE” value ([11]; Rate 0.0620 kg/ha) of the same compound?
Answer: Its value is 7.0.

Question: And the “Preemergence herbicidal rating IPOHE” value ([11]; Rate 0.1250 kg/ha)?
Answer: Its value is 9.0.

Question: And the “Preemergence herbicidal rating IPOHE” value ([11]; Rate 0.2500 kg/ha)?
Answer: The value was 9.0.

Question: What about the GALAP herbicidal rating (GALAP (Galium aparine) [12]; rate 0.0320 kg/ha) of the same compound?
Answer: The GALAP herbicidal rating was 9.0.

Question: What about the GALAP herbicidal rating (GALAP (Galium aparine) [12]; rate 0.0620 kg/ha) of the same compound?
Answer: The GALAP herbicidal rating was 9.0.

Question: What about the GLXMAW herbicidal rating ([13]; rate 0.0320 kg/ha) of the same compound?
Answer: The GLXMAW herbicidal rating was 5.5.

Question: And the GLXMAW herbicidal rating ([13]; rate 0.0620 kg/ha)?
Answer: The GLXMAW herbicidal rating was 7.5.

Question: And the ABUTH herbicidal rating ([14]; rate 0.0320 kg/ha)?
Answer: Its ABUTH herbicidal rating is 9.0.

Question: And the ABUTH herbicidal rating ([14]; rate 0.0620 kg/ha)?
Answer: Its ABUTH herbicidal rating is 9.0.

Question: What about the ZEAMX herbicidal rating (ZEAMX (Corn, Field); rate 0.0320 kg/ha) of the same compound?
Answer: The ZEAMX herbicidal rating was 4.5.

Question: What about the ZEAMX herbicidal rating (ZEAMX (Corn, Field); rate 0.0620 kg/ha) of the same compound?
Answer: The ZEAMX herbicidal rating was 5.0.

Question: And the “Preemergence herbicidal rating TRZAWR” value ([15]; Rate 0.0620 kg/ha)?
Answer: The value was 4.0.

Question: What about the “Preemergence herbicidal rating TRZAWR” value ([15]; Rate 0.1250 kg/ha) of the same compound?
Answer: Its value is 6.0.

Question: What about the “Preemergence herbicidal rating TRZAWR” value ([15]; Rate 0.2500 kg/ha) of the same compound?
Answer: The value was 8.0.

Question: And the “herbicidal rating, ORYSAT (rice tolerance)” value (“herbicidal rating, ORYSAT” below) (ORYSAT (Rice, Tebonnet) [16]; rate 0.0080 kg/ha)?
Answer: Its value is 0.0.

Question: And the “herbicidal rating, ORYSAT” value (ORYSAT (Rice, Tebonnet) [16]; rate 0.0320 kg/ha)?
Answer: Its value is 0.0.

Question: What about the “herbicidal rating, ORYSAT” value (ORYSAT (Rice, Tebonnet) [16]; rate 0.1250 kg/ha) of the same compound?
Answer: The value was 5.0.

Question: And the ECHCG herbicidal rating ([17]; rate 0.0320 kg/ha)?
Answer: The ECHCG herbicidal rating was 2.0.

Question: And the ECHCG herbicidal rating ([17]; rate 0.0620 kg/ha)?
Answer: Its ECHCG herbicidal rating is 3.0.

Question: And the “Preemergence herbicidal rating ORYSAT” value (ORYSAT (Rice, Tebonnet) [18]; Rate 0.0620 kg/ha)?
Answer: The value was 6.0.

Question: And the “Preemergence herbicidal rating ORYSAT” value (ORYSAT (Rice, Tebonnet) [18]; Rate 0.1250 kg/ha)?
Answer: Its value is 7.0.

Question: And the “Preemergence herbicidal rating ORYSAT” value (ORYSAT (Rice, Tebonnet) [18]; Rate 0.2500 kg/ha)?
Answer: The value was 8.0.
